These results are taken from publication PMC3962490, “The Yeast Ess1 Prolyl Isomerase Controls Swi6 and Whi5 Nuclear Localization” (G3: Genes|Genomes|Genetics, 2014).

Where two headings read alike, the source gives them in different places. Non-standard residues stand in square brackets, D forms with d. Residues, ends and D or L forms follow the SMILES beside them. *: point of attachment. Biotin = O=C1N[C@H]2[C@H](CS[C@H]2CCCCC(=O)*)N1; pS = N[C@@H](COP(=O)(O)O)C(=O)O

For the assay, the target named is T1, Recombinant S. cerevisiae Ess1 protein (Saccharomyces cerevisiae, UniProt P22696).
T1 construct: made in house; host or cells: Escherichia coli
T1 sequence (P22696 1-170): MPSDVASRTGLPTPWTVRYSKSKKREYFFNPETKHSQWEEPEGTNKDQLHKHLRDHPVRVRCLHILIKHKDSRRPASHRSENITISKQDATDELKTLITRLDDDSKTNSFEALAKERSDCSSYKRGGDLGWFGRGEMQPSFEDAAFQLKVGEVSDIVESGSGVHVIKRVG
Put plainly: Biolayer interferometry (BLI) kinetic assays of Ess1/peptide binding. The settings on record: for Ess1 binding (in words) / Kd / kon: BLI; for Ess1 binding (in words): Ess1 3, 10, 30 μM, Figure 6, S1, S3; for kon: slope of kobs vs Ess1 concentration (Fig. S2), read-out: ka (association rate); for koff: read-out: kd (dissociation rate). As for the experimental part: Biolayer interferometry (BLI) was measured at 24° with an Octet RED system (FortéBio), essentially as described ([Shah and Duncan 2013]; [Shah et al. 2013]). Peptides were synthesized with N-terminal biotinylation (NEOBioLab). Phosphoserine residues were incorporated during synthesis and all peptides were purified to >95% purity by high-performance liquid chromatography (NEOBioLab). Each peptide included 4-6 N-terminal residues (typically [Gly-Gly-Ser]2) as a flexible linker to facilitate binding of Ess1 protein to the surface-immobilized peptide. BLI assays were carried out in 20 mM Tris-HCl pH 8.0, 1 mg/mL bovine serum albumin (Sigma-Aldrich; A6003-10G). Different peptides were immobilized on separate streptavidin-coated biosensors (FortéBio; cat. no. 18-5019). For each peptide sequence, sensors loaded with phosphorylated or unphosphorylated peptides were assayed in parallel, and the peptide concentrations (50−200 nM) and time of loading were controlled to achieve essentially the same level of peptide signal loaded, regardless of phosphorylation status (e.g., Figure S1). Recombinant S. cerevisiae Ess1 protein was purified from Escherichia coli as described ([Li et al. 2005]). Ess1 was incubated with peptide-loaded and control (no peptide) biosensors to measure kinetics of Ess1/peptide association, and sensors were moved to buffer alone to measure dissociation kinetics. To correct for low but significant nonspecific binding of Ess1 to sensors, data from a sensor without peptide within the same experiment were subtracted for each concentration of Ess1 used. For direct comparison of Ess1 binding to different peptides (Figure 6), signals were normalized for the levels of sensor-loaded peptide (0.2−0.5 nm) between sequential runs within the experiment. Data were analyzed using FortéBio Data Analysis software (Versions 6.4), and by linear and nonlinear regression in Prism (GraphPad, version 4).
To determine whether Ess1 interacts directly with Swi6 and Whi5, we conducted binding assays by using purified Ess1 protein and phospho-Ser-Pro or Ser-Pro peptides corresponding to the NLS motif of Swi6 and both NLS and NES motifs of Whi5. Binding was assayed using BLI ([Shah and Duncan 2013]). In brief, biotinylated peptides corresponding to the NLS or NES motifs were immobilized on streptavidin-coated sensors and binding of purified Ess1 protein was measured using BLI. Ess1 protein binding to immobilized peptide changes the optical interference at the sensor surface, measured as nm of spectral shift. Using this approach, we monitored the kinetics of binding and dissociation of Ess1. […] Binding was dependent on Ess1 concentration (3, 10, and 30 μM were used).
Figure 6 In vitro binding of Ess1 to Swi6 and Whi5 peptides. Kinetics for binding and dissociation of purified Ess1 protein with NLS and NES peptides were monitored using biolayer interferometry (BLI). Sensor-immobilized peptides: (A) carboxy-terminal domain (CTD) of RNA polymerase II (RNAPII), (B) Swi6-NLS, (C) Whi5-NLS, and (D) Whi5-NES. Data for phosphorylated peptides (P) are shown in black, unphosphorylated peptides (Un) in blue, and fitting curves are shown in red. Biotinylated peptides were loaded on individual streptavidin sensors, followed by a wash to remove unbound peptide. To measure Ess1 binding, sensors were transferred from buffer alone to buffer containing 3, 10, or 30 μM Ess1 protein (time zero) as indicated. After 300 sec, sensors were transferred to fresh buffer (without Ess1) to monitor Ess1 dissociation. Examples of raw data for these experiments, including the peptide-loading step and control sensors with no peptide are shown in Figure S1.
Table S4 Fitting Results for BLI Kinetic Assays
Peptide ka (M-1s-1) ±SD kd (s-1) ±SD %Rmax ±SD
Summary of results for fitting curves of BLI kinetic data (Fig. 6). The dissociation rate (kd) is an average (±standard deviation
(SD)) for fits at 3 concentrations of each peptide (3, 10, 30 µM). […]
(BLI is a label-free optical method that tracks binding on a fibre tip over time.)

Where [1] appears, read: estimated from binding isotherm F = E/(E + Kapp) with signal at 30 μM Ess1 relative to saturated signal of the cognate phosphorylated peptide, read-out: Kapp (estimated, unphosphorylated peptides).
[2] abbreviates: 24°, 20 mM Tris-HCl pH 8.0, 1 mg/mL BSA, plateau binding responses vs Ess1 concentration (3, 10, 30 μM) fit to hyperbolic binding isotherm, read-out: KappEq (Equilibrium).

Regarding `C[C@@H](O)[C@H](NC(=O)[C@@H]1CCCN1C(=O)[C@H](CO)NC(=O)[C@H](Cc1ccc(O)cc1)NC(=O)[C@H](CO)NC(=O)CNC(=O)CNC(=O)[C@H](CO)NC(=O)CNC(=O)CNC(=O)CCCC[C@@H]1SC[C@@H]2NC(=O)N[C@@H]21)C(=O)N[C@@H](CO)C(=O)N1CCC[C@H]1C(=O)N[C@@H](CO)C(=O)N[C@@H](Cc1ccc(O)cc1)C(=O)N[C@@H](CO)C(=O)O` [CTD, reference compound] (Biotin-GGSGGSYSPTSPSYS-OH; N-terminus and C-terminus assumed), the “Ess1 binding (in words)” value is listed as “very little binding”. Under setting [1], the Kd was greater than 300 µM.

In the case of `C[C@@H](O)[C@H](NC(=O)[C@@H]1CCCN1C(=O)[C@H](CO)NC(=O)[C@H](Cc1ccc(O)cc1)NC(=O)[C@H](CO)NC(=O)CNC(=O)CNC(=O)[C@H](CO)NC(=O)CNC(=O)CN)C(=O)N[C@@H](COP(=O)(O)O)C(=O)N1CCC[C@H]1C(=O)N[C@@H](CO)C(=O)N[C@@H](Cc1ccc(O)cc1)C(=O)N[C@@H](CO)C(=O)O` [CTD-P, reference compound] (H-GGSGGSYSPT[pS]PSYS-OH), the kon was determined as 27100 M⁻¹ s⁻¹ and the koff was found to be 0.0923 s⁻¹. Moreover, the Kd under setting [2] came to 1.65 ± 0.06 µM. The matching figures for `CC(C)C[C@H](NC(=O)[C@H](CCC(=O)O)NC(=O)[C@H](CCCNC(=N)N)NC(=O)[C@H](CO)NC(=O)CNC(=O)CNC(=O)[C@H](CO)NC(=O)CNC(=O)CN)C(=O)NCC(=O)N[C@@H](COP(=O)(O)O)C(=O)N1CCC[C@H]1C(=O)N[C@@H](CC(C)C)C(=O)N[C@@H](CCCCN)C(=O)N[C@@H](CCCCN)C(=O)O` [Swi6-NLS-P] (H-GGSGGSRELG[pS]PLKK-OH): 25100 M⁻¹ s⁻¹, 0.254 s⁻¹ and 10.1 ± 5.1 µM. For `CC(C)C[C@H](NC(=O)[C@H](CCC(=O)O)NC(=O)[C@H](CCCNC(=N)N)NC(=O)[C@H](CO)NC(=O)CNC(=O)CNC(=O)[C@H](CO)NC(=O)CNC(=O)CNC(=O)CCCC[C@@H]1SC[C@@H]2NC(=O)N[C@@H]21)C(=O)NCC(=O)N[C@@H](CO)C(=O)N1CCC[C@H]1C(=O)N[C@@H](CC(C)C)C(=O)N[C@@H](CCCCN)C(=O)N[C@@H](CCCCN)C(=O)O` [Swi6-NLS] (Biotin-GGSGGSRELGSPLKK-OH; N-terminus and C-terminus assumed), the Kd under setting [1] was greater than 100 µM. For `CC(C)C[C@H](NC(=O)[C@H](CCCNC(=N)N)NC(=O)[C@@H]1CCCN1C(=O)[C@H](COP(=O)(O)O)NC(=O)[C@@H]1CCCN1C(=O)[C@H](COP(=O)(O)O)NC(=O)[C@H](CC(C)C)NC(=O)[C@H](Cc1ccccc1)NC(=O)CNC(=O)CNC(=O)[C@H](CO)NC(=O)CNC(=O)CN)C(=O)N[C@@H](CCCNC(=N)N)C(=O)N[C@@H](COP(=O)(O)O)C(=O)N1CCC[C@H]1C(=O)N1CCC[C@H]1C(=O)N[C@H](C(=O)O)[C@@H](C)O` [Whi5-NES-P] (H-GGSGGFL[pS]P[pS]PRLR[pS]PPT-OH), the kon is 17500 M⁻¹ s⁻¹ and the koff amounted to 0.0503 s⁻¹. The Kd under setting [2] came to 1.13 ± 0.18 µM. Regarding `CC(C)C[C@H](NC(=O)[C@H](CCCNC(=N)N)NC(=O)[C@@H]1CCCN1C(=O)[C@H](CO)NC(=O)[C@@H]1CCCN1C(=O)[C@H](CO)NC(=O)[C@H](CC(C)C)NC(=O)[C@H](Cc1ccccc1)NC(=O)CNC(=O)CNC(=O)[C@H](CO)NC(=O)CNC(=O)CNC(=O)CCCC[C@@H]1SC[C@@H]2NC(=O)N[C@@H]21)C(=O)N[C@@H](CCCNC(=N)N)C(=O)N[C@@H](CO)C(=O)N1CCC[C@H]1C(=O)N1CCC[C@H]1C(=O)N[C@H](C(=O)O)[C@@H](C)O` [Whi5-NES] (Biotin-GGSGGFLSPSPRLRSPPT-OH; N-terminus and C-terminus assumed), the Kd under setting [1] was greater than 1500 µM. `CC[C@H](C)[C@H](NC(=O)CNC(=O)[C@@H]1CCCN1C(=O)[C@@H]1CCCN1C(=O)[C@H](COP(=O)(O)O)NC(=O)[C@@H]1CCCN1C(=O)[C@@H]1CCCN1C(=O)[C@H](COP(=O)(O)O)NC(=O)[C@@H]1CCCN1C(=O)[C@@H](NC(=O)CNC(=O)CNC(=O)[C@H](CO)NC(=O)CNC(=O)CN)[C@@H](C)O)C(=O)O` [Whi5-NLS-P] (H-GGSGGTP[pS]PP[pS]PPGI-OH): the kon came to 22800 M⁻¹ s⁻¹ and the koff was 0.0722 s⁻¹. Further, the Kd under setting [2] came out at 0.48 ± 0.46 µM. In the case of `CC[C@H](C)[C@H](NC(=O)CNC(=O)[C@@H]1CCCN1C(=O)[C@@H]1CCCN1C(=O)[C@H](CO)NC(=O)[C@@H]1CCCN1C(=O)[C@@H]1CCCN1C(=O)[C@H](CO)NC(=O)[C@@H]1CCCN1C(=O)[C@@H](NC(=O)CNC(=O)CNC(=O)[C@H](CO)NC(=O)CNC(=O)CNC(=O)CCCC[C@@H]1SC[C@@H]2NC(=O)N[C@@H]21)[C@@H](C)O)C(=O)O` [Whi5-NLS] (Biotin-GGSGGTPSPPSPPGI-OH; N-terminus and C-terminus assumed), the Kd under setting [1] was greater than 25 µM. In the case of “H3 aa1-21 (Ser10-P): "nonsubstrate" peptide (H3 aa1-21) in the phosphorylated form (Ser10-P) [reference compound]”, the “Ess1 binding (in words)” value is given as “did not bind”.

As to “H3 aa1-21 unphosphorylated: "nonsubstrate" peptide (H3 aa1-21) in the unphosphorylated form [reference compound]”, the “Ess1 binding (in words)” value is given as “did not bind”.
